Experimental data: ChEMBL document CHEMBL1201862, “PubChem BioAssay data set” (2004)
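Each compound was tested at five concentrations against cells in 96-well plates for 48 hours. Here, GI50 denotes the concentration required for 50% inhibition of growth.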 The source made the active and inactive calls. Rule as the data show it: active = GI50 up to about 1.1 µM and inactive = higher.

Columns and labels:
Experiment in all cases: DTP human tumour cell line panel, 48 h
[1] = tested on: TK-10
[2] = tested on: A549
[3] = tested on: EKVX
[4] = tested on: Malme-3M
[5] = tested on: HT-29
[6] = tested on: ACHN
[7] = tested on: NCI-H460
[8] = tested on: OVCAR-5
[9] = tested on: SF-268
[10] = tested on: HL-60
[11] = tested on: OVCAR-4
[12] = tested on: SK-MEL-28
[13] = tested on: MDA-N
[14] = tested on: KM12
[15] = tested on: CAKI-1
[16] = tested on: NCI/ADR-RES
[17] = tested on: T47D
[18] = tested on: HOP-62
[19] = tested on: MCF7
[20] = tested on: UACC-257
[21] = tested on: K562
[22] = tested on: RPMI-8226
[23] = tested on: PC-3
[24] = tested on: MOLT-4
[25] = tested on: MDA-MB-435
[26] = tested on: SF-295
[27] = tested on: SNB-75
[28] = tested on: A498
[29] = tested on: BT-549
[30] = tested on: HCT-116
[31] = tested on: NCI-H23
[32] = tested on: HCT-15
[33] = tested on: UO-31
[34] = tested on: MDA-MB-231
[35] = tested on: SK-MEL-5
[36] = tested on: OVCAR-8
[37] = tested on: HCC 2998
[38] = tested on: HOP-92
[39] = tested on: M14
[40] = tested on: SK-OV-3
[41] = tested on: U-251
[42] = tested on: OVCAR-3
[43] = tested on: NCI-H522
[44] = tested on: NCI-H226
[45] = tested on: SR
[46] = tested on: SN12C
[47] = tested on: DU-145
[48] = tested on: 786-0
[49] = tested on: COLO 205
[50] = tested on: SF-539
[51] = tested on: SW-620
[52] = tested on: Hs-578T
[53] = tested on: SNB-19
[54] = tested on: UACC-62
[55] = tested on: CCRF-CEM
[56] = tested on: RXF 393
[57] = tested on: LOX IMVI
[58] = tested on: SK-MEL-2
[59] = tested on: IGROV-1

Structure (SMILES): CC(=O)OCC1OC(OCCCOP(=O)(OCCC#N)OCC2OC(n3cnc4c(N)ncnc43)C(OC(=O)c3ccccc3)C2OC(=O)c2ccccc2)C(OC(C)=O)C(OC(C)=O)C1OC(C)=O (stereo unspecified)
- GI50 [1]: > 100 µM (inactive)
- GI50 [2]: > 100 µM (inactive)
- GI50 [3]: > 100 µM (inactive)
- GI50 [4]: 1.06 µM (active)
- GI50 [5]: > 100 µM (inactive)
- GI50 [6]: > 100 µM (inactive)
- GI50 [7]: > 100 µM (inactive)
- GI50 [8]: > 100 µM (inactive)
- GI50 [9]: > 100 µM (inactive)
- GI50 [10]: > 100 µM (inactive)
- GI50 [11]: > 100 µM (inactive)
- GI50 [12]: > 100 µM (inactive)
- GI50 [13]: > 100 µM (inactive)
- GI50 [14]: > 100 µM (inactive)
- GI50 [15]: > 100 µM (inactive)
- GI50 [16]: > 100 µM (inactive)
- GI50 [17]: > 100 µM (inactive)
- GI50 [18]: > 100 µM (inactive)
- GI50 [19]: > 100 µM (inactive)
- GI50 [20]: > 100 µM (inactive)
- GI50 [21]: > 100 µM (inactive)
- GI50 [22]: > 64.1 µM (inactive)
- GI50 [23]: > 100 µM (inactive)
- GI50 [24]: > 100 µM (inactive)
- GI50 [25]: > 100 µM (inactive)
- GI50 [26]: > 100 µM (inactive)
- GI50 [27]: > 75 µM (inactive)
- GI50 [28]: > 100 µM (inactive)
- GI50 [29]: > 100 µM (inactive)
- GI50 [30]: > 100 µM (inactive)
- GI50 [31]: > 100 µM (inactive)
- GI50 [32]: > 100 µM
- GI50 [33]: > 100 µM (inactive)
- GI50 [34]: > 100 µM (inactive)
- GI50 [35]: > 100 µM (inactive)
- GI50 [36]: > 100 µM (inactive)
- GI50 [37]: > 100 µM (inactive)
- GI50 [38]: > 100 µM (inactive)
- GI50 [39]: > 100 µM (inactive)
- GI50 [40]: > 100 µM (inactive)
- GI50 [41]: > 100 µM (inactive)
- GI50 [42]: > 100 µM (inactive)
- GI50 [43]: 16.3 µM (inactive)
- GI50 [44]: > 100 µM (inactive)
- GI50 [45]: > 100 µM (inactive)
- GI50 [46]: > 100 µM (inactive)
- GI50 [47]: > 100 µM (inactive)
- GI50 [48]: > 100 µM (inactive)
- GI50 [49]: > 100 µM (inactive)
- GI50 [50]: > 100 µM (inactive)
- GI50 [51]: > 100 µM (inactive)
- GI50 [52]: 28.7 µM (inactive)
- GI50 [53]: > 100 µM (inactive)
- GI50 [54]: > 100 µM (inactive)
- GI50 [55]: > 100 µM (inactive)
- GI50 [56]: > 100 µM (inactive)
- GI50 [57]: > 100 µM (inactive)
- GI50 [58]: > 100 µM (inactive)

Structure (SMILES): CCOC(=O)C(CCN1CCC2(CC1)C(=O)N(C)CN2c1ccccc1)C(=O)OCC
- GI50 [59]: > 100 µM (inactive)
- GI50 [1]: > 100 µM (inactive)
- GI50 [2]: > 100 µM (inactive)
- GI50 [3]: > 100 µM (inactive)
- GI50 [4]: > 100 µM (inactive)
- GI50 [5]: > 100 µM (inactive)
- GI50 [6]: > 100 µM (inactive)
- GI50 [7]: > 100 µM (inactive)
- GI50 [8]: > 100 µM (inactive)
- GI50 [9]: > 100 µM (inactive)
- GI50 [10]: > 100 µM (inactive)
- GI50 [11]: > 100 µM (inactive)
- GI50 [12]: > 100 µM (inactive)
- GI50 [13]: > 100 µM (inactive)
- GI50 [14]: > 100 µM (inactive)
- GI50 [15]: > 100 µM (inactive)
- GI50 [16]: > 100 µM (inactive)
- GI50 [17]: > 100 µM (inactive)
- GI50 [18]: > 100 µM (inactive)
- GI50 [19]: > 100 µM (inactive)
- GI50 [20]: > 100 µM (inactive)
- GI50 [21]: > 100 µM (inactive)
- GI50 [22]: > 100 µM (inactive)
- GI50 [23]: > 100 µM (inactive)
- GI50 [24]: > 100 µM (inactive)
- GI50 [25]: > 100 µM (inactive)
- GI50 [26]: > 100 µM (inactive)
- GI50 [27]: > 100 µM (inactive)
- GI50 [28]: > 100 µM (inactive)
- GI50 [29]: > 100 µM (inactive)
- GI50 [30]: > 100 µM (inactive)
- GI50 [31]: > 100 µM (inactive)
- GI50 [32]: > 100 µM
- GI50 [33]: > 100 µM (inactive)
- GI50 [34]: > 100 µM (inactive)
- GI50 [35]: > 100 µM (inactive)
- GI50 [36]: > 100 µM (inactive)
- GI50 [37]: 57.7 µM (inactive)
- GI50 [38]: > 100 µM (inactive)
- GI50 [39]: > 100 µM (inactive)
- GI50 [40]: > 100 µM (inactive)
- GI50 [41]: > 100 µM (inactive)
- GI50 [42]: > 100 µM (inactive)
- GI50 [43]: > 100 µM (inactive)
- GI50 [44]: > 100 µM (inactive)
- GI50 [45]: > 100 µM (inactive)
- GI50 [46]: > 100 µM (inactive)
- GI50 [47]: > 100 µM (inactive)
- GI50 [48]: > 100 µM (inactive)
- GI50 [49]: > 100 µM (inactive)
- GI50 [50]: > 100 µM (inactive)
- GI50 [51]: > 100 µM (inactive)
- GI50 [52]: > 100 µM (inactive)
- GI50 [53]: > 100 µM (inactive)
- GI50 [54]: > 100 µM (inactive)
- GI50 [55]: > 100 µM (inactive)
- GI50 [56]: > 100 µM (inactive)
- GI50 [57]: > 100 µM (inactive)
- GI50 [58]: > 100 µM (inactive)

Structure (SMILES): CC(O)CC(=O)CO[C@H]1[C@H](O)[C@@H](O)[C@@H](O)[C@@H]2NC(=O)c3c(cc4c(c3O)OCO4)[C@H]21 (stereo partly specified)
- GI50 [59]: < 0.0207 µM (active)
- GI50 [1]: 0.0353 µM (active)
- GI50 [2]: 0.042 µM (active)
- GI50 [3]: 0.0266 µM (active)
- GI50 [4]: 0.0118 µM (active)
- GI50 [5]: 0.0258 µM (active)
- GI50 [6]: 0.0391 µM (active)
- GI50 [7]: 0.0275 µM (active)
- GI50 [8]: 0.0711 µM (active)
- GI50 [9]: 0.0222 µM (active)
- GI50 [10]: 0.0386 µM (active)
- GI50 [11]: 0.0483 µM (active)
- GI50 [12]: < 0.0201 µM (active)
- GI50 [13]: 0.0366 µM (active)
- GI50 [14]: 0.0316 µM (active)
- GI50 [15]: 0.512 µM (active)
- GI50 [16]: 1.29 µM (inactive)
- GI50 [17]: 0.0222 µM (active)
- GI50 [18]: 0.0289 µM (active)
- GI50 [19]: 0.0194 µM (active)
- GI50 [20]: 0.0397 µM (active)
- GI50 [21]: 0.0392 µM (active)
- GI50 [22]: 0.0226 µM (active)
- GI50 [23]: 0.0272 µM (active)
- GI50 [24]: 0.0313 µM (active)
- GI50 [25]: 0.0386 µM (active)
- GI50 [26]: 0.0299 µM (active)
- GI50 [27]: 0.0472 µM (active)
- GI50 [28]: 0.0218 µM (active)
- GI50 [29]: 0.0509 µM (active)
- GI50 [30]: 0.0264 µM (active)
- GI50 [31]: 0.0335 µM (active)
- GI50 [32]: 0.256 µM
- GI50 [33]: 0.115 µM (active)
- GI50 [34]: 0.054 µM (active)
- GI50 [35]: 0.0137 µM (active)
- GI50 [36]: 0.0332 µM (active)
- GI50 [37]: 0.0181 µM (active)
- GI50 [38]: 0.0377 µM (active)
- GI50 [39]: 0.0361 µM (active)
- GI50 [40]: 0.0617 µM (active)
- GI50 [41]: < 0.015 µM (active)
- GI50 [42]: 0.0457 µM (active)
- GI50 [43]: 0.0242 µM (active)
- GI50 [44]: 0.0499 µM (active)
- GI50 [45]: 0.0335 µM (active)
- GI50 [46]: 0.0266 µM (active)
- GI50 [47]: 0.0214 µM (active)
- GI50 [48]: 0.0439 µM (active)
- GI50 [49]: 0.0332 µM (active)
- GI50 [50]: 0.0214 µM (active)
- GI50 [51]: 0.109 µM (active)
- GI50 [52]: 0.0398 µM (active)
- GI50 [53]: < 0.0156 µM (active)
- GI50 [54]: 0.0541 µM (active)
- GI50 [55]: 0.0184 µM (active)
- GI50 [56]: 0.0208 µM (active)
- GI50 [57]: 0.0208 µM (active)
- GI50 [58]: 0.0363 µM (active)
